In patent US20130011378A1, “Stable formulations of a hyaluronan-degrading enzyme” (priority 2011, published 2013):
Counter-ions that a name gives are not always drawn. Like-named read-outs stand apart in the source and are kept apart here. Residues, ends and D or L forms follow the SMILES beside them.

Tests used:
rHuPH20 [1] = target: T1, rHuPH20 (Homo sapiens, UniProt P38567); test: Determination of hyaluronidase activity of rHuPH20, turbidimetric assay (Example 2, variant not specified); type: biochemical; settings: for Effect on rHuPH20 enzymatic activity: stabilizer screening in rHuPH20/insulin formulation, semi-quantitative in comparison with NaCl, samples incubated at 30° C. for about one week
T1 construct: made in house; host or cells: CHO cells (DG44 CHO, HZ24 plasmid, clone 2B2)
T1 sequence (P38567 36-482): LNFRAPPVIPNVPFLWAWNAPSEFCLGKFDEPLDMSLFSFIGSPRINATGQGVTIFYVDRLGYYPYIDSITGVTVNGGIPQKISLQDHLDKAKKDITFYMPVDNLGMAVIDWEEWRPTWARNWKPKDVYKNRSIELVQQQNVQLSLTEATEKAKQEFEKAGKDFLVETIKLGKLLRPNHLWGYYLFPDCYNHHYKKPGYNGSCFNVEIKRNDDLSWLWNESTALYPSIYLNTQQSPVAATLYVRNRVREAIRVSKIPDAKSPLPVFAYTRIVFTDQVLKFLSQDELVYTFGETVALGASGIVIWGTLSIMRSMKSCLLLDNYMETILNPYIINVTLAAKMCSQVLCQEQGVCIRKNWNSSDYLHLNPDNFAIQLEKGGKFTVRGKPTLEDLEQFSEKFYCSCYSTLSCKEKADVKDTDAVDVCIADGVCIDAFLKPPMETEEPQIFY

[2] = Non-denaturing SEC: percent main peak / aggregates of insulin and rHuPH20; type: physicochemical
Method: Reference samples were stored in HPLC vials at 10° C. prior to use.
Samples were stored in HPLC vials at 10° C. prior to use, for up to 3 days.
0.5× Phosphate Buffered Saline (PBS) solution was prepared by diluting 10×PBS with HPLC grade water.
Insulin percent purity was expressed as percentage of the insulin main peak versus the total insulin peaks. The target specification is less than 2% high molecular weight protein, i.e., insulin aggregates.
SEC was performed using the following conditions: 1× Phosphate Buffered Saline (PBS), a Toso BioScience G2000 SWXL column, and a flow rate set at 1 mL/min. Data were collected as described above and means were reported and entered into the design table following the sample sequence provided by the DOE software.

[3] = RP-HPLC: insulin apparent solubility / percent recovery
Method: Apparent solubility was measured as the percent insulin recovery as compared to the initial formulations/conditions.
Samples were prepared by withdrawing 100 μL from each vial at every time point and centrifuging prior to loading. Samples were stored in an autosampler at 4° C. prior to use, and were considered stable for 3 days after preparation. All samples were tested in duplicate.
For insulin, 20 μL was injected for each HPLC run.
To determine the apparent solubility, the peak area of insulin/insulin analog main peak and desamido peak were integrated and combined together to calculate the percentage relative to the standards. […] The data were processed using Design-Expert® 7.0 (StatEase) and the “historical data” feature. Insulin percent purity was expressed as the percent of main insulin versus all insulin species.

rHuPH20 [4] = target: T1, rHuPH20; test: RP-HPLC: rHuPH20 oxidation peaks (ox-1, ox-2); type: physicochemical; settings: 0.02% surfactant, 30° C., 72 hours
Description: The stability of hyaluronan degrading enzymes in a composition, such as in the co-formulations provided herein, also can be assessed using other methods and assays known in the art. […] Percent recovery is the relative percentage of the hyaluronidase in the co-formulation over time and at various storage conditions, as compared to a reference sample. […] An increase in particle size and a decrease in the melting temperature indicates denaturation and subsequent aggregation of the hyaluronidase. […] Other methods known to one of skill in the art that can be used to determine the stability of the hyaluronidase in the co-formulations provided herein, include polyacrylamide gel electrophoresis (PAGE), immunoblotting, nuclear magnetic resonance (NMR) spectroscopy, mass spectrometry, circular dichroism (CD) and dye-based fluorescence assays.
The formulations varied in the surfactant and surfactant concentration and the buffer (either histidine or phosphate).
Methionine oxidation can be prevented by addition of free methionine as a scavenger to react with potential oxidative compounds.

[5] = 48 hours, 4° C., preservative levels of Table 22, in U/mL
[6] = t = 0, 100 μg/mL rHuPH20, pH 7.3, 140 mM NaCl, 0.01% polysorbate 80, preservative levels of Table 21, in U/mL
[7] = 35° C., Table 22 concentrations
[8] = stabilizer screening in rHuPH20/insulin formulation, semi-quantitative in comparison with NaCl, RP-HPLC, samples stored at 5° C.

OC[C@H]1O[C@H](O[C@H]2O[C@H](CO)[C@@H](O)[C@H](O)[C@H]2O)[C@H](O)[C@@H](O)[C@@H]1O [Trehalose]
Effect on rHuPH20 enzymatic activity (rHuPH20 [1]): No effect

hyaluronic acid [HA]
% of the original activity retained (rHuPH20 [1]; 1 week at 30° C., pH 7.1, 1 mg/mL HA, 75 mM NaCl): 57% | % of the original rHuPH20 remained (rHuPH20 [1]; 1 week at 30° C., pH 7.1, 5.5 mg/mL HA, 100 mM NaCl): 68% | % of the original activity retained (rHuPH20 [1]; 1 week at 30° C., pH 7.1, 10 mg/mL HA): 85% | rHuPH20 activity (rHuPH20 [1]; 1 week at 30° C., pH 7.1, 10 mg/mL HA, from 600 U/mL): 510 U/mL | rHuPH20 activity (rHuPH20 [1]; rHuPH20/insulin co-formulation, 1 week at 30° C., pH 7.1, 1 mg/mL HA, 75 mM NaCl, from 600 U/mL): 341 U/mL | effect on rHuPH20 stability in comparison with NaCl (rHuPH20 [1]; stabilizer screening, 30° C. about one week, […] m-cresol, 0.2% phenol): stabilized rHuPH20 more than NaCl

N[C@@H](Cc1ccccc1)C(=O)O [L-Phenylalanine]
rHuPH20 activity (rHuPH20 [1]; 24 hours, 25° C., in U/mL): 12100 | rHuPH20 activity (rHuPH20 [1]; [5]): 12,540 | rHuPH20 activity (rHuPH20 [1]; 48 hours, 35° C., preservative levels of Table 22, in U/mL): 13,130 | rHuPH20 activity (rHuPH20 [1]; 5 days, 25° C., in U/mL): 11460 | rHuPH20 activity (rHuPH20 [1]; 6 days, 35° C., in U/mL): 10660 | rHuPH20 activity (rHuPH20 [1]; [6]): 13,420 | % Main rHuPH20 peak by non-denaturing SEC ([2]; 4° C., 1 day): 98.27% | % Main rHuPH20 peak by non-denaturing SEC ([2]; 4° C., Table 22 concentrations): 100.00% | % Main rHuPH20 peak by non-denaturing SEC ([2]; 35° C., 1 day): 98.86% | % Main rHuPH20 peak by non-denaturing SEC [2, 7]: 99.80%

Cc1cccc(O)c1 [m-cresol]
rHuPH20 activity (rHuPH20 [1]; [5]): 10,950 | rHuPH20 activity (rHuPH20 [1]; 48 hours, 35° C., preservative levels of Table 22): <LOQ | Enzymatic Activity of rHuPH20 (rHuPH20 [1]; preservative 0.05%, 1 Month, 25° C., insulin/rHuPH20 formulation pH 7.1, 140 mM NaCl): 2103 U/mL | Enzymatic Activity of rHuPH20 (rHuPH20 [1]; preservative 0.05%, 1 Week, 35° C.): 2019 U/mL | Enzymatic Activity of rHuPH20 (rHuPH20 [1]; preservative 0.05%, 2 Weeks, 35° C.): 1955 U/mL | Enzymatic Activity of rHuPH20 (rHuPH20 [1]; preservative 0.1%, 1 Month, 25° C.): 2188 U/mL | Enzymatic Activity of rHuPH20 (rHuPH20 [1]; preservative 0.1%, 1 Week, 35° C.): 2147 U/mL | Enzymatic Activity of rHuPH20 (rHuPH20 [1]; preservative 0.1%, 2 Weeks, 35° C.): 2069 U/mL | Enzymatic Activity of rHuPH20 (rHuPH20 [1]; preservative 0.2%, 1 Month, 25° C.): 2013 U/mL | Enzymatic Activity of rHuPH20 (rHuPH20 [1]; preservative 0.2%, 1 Week, 35° C.): 466 U/mL | Enzymatic Activity of rHuPH20 (rHuPH20 [1]; preservative 0.2%, 2 Weeks, 35° C.): 185 U/mL | Enzymatic Activity of rHuPH20 (rHuPH20 [1]; preservative 0.4%, 1 Month, 25° C.): <LOD | Enzymatic Activity of rHuPH20 (rHuPH20 [1]; preservative 0.4%, 1 Week, 35° C.): <LOD | Enzymatic Activity of rHuPH20 (rHuPH20 [1]; preservative 0.4%, 2 Weeks, 35° C.): <LOD | % Main rHuPH20 peak by non-denaturing SEC ([2]; 4° C., Table 22 concentrations): 100.00% | % Main rHuPH20 peak by non-denaturing SEC [2, 7]: 0.834%

OCC(O)CO [glycerol]
Effect on rHuPH20 enzymatic activity (rHuPH20 [1]): No effect | Effect on insulin solubility [3]: No/slight effect;

C[CH2][Hg][S]c1ccccc1C(=O)[O-].[Na+] [Thimerosal]
rHuPH20 activity (rHuPH20 [1]; 24 hours, 25° C., in U/mL): 8990 | rHuPH20 activity (rHuPH20 [1]; 5 days, 25° C., in U/mL): 8960 | rHuPH20 activity (rHuPH20 [1]; 6 days, 35° C., in U/mL): 10070 | rHuPH20 activity (rHuPH20 [1]; [6]): 10,290 | % Main rHuPH20 peak by non-denaturing SEC ([2]; 4° C., 1 day): 98.59% | % Main rHuPH20 peak by non-denaturing SEC ([2]; 35° C., 1 day): 98.31%

Polysorbate 20
% of Oxidation Peak 1 of rHuPH20 (rHuPH20 [4]; Methionine 0 mM): 4.01% | % of Oxidation Peak 1 of rHuPH20 (rHuPH20 [4]; Methionine 2 mM): 3.43% | % of Oxidation Peak 1 of rHuPH20 (rHuPH20 [4]; Methionine 10 mM): 3.37% | % of Oxidation Peak 1 of rHuPH20 (rHuPH20 [4]; Methionine 50 mM): 3.38%

O=C(O)CCCc1ccccc1 [Phenyl butyric acid]
Effect on rHuPH20 enzymatic activity (rHuPH20 [1]): No effect

NCCCC[C@H](N)C(=O)O [Lysine]
Effect on rHuPH20 enzymatic activity (rHuPH20 [1]): No effect | Effect on insulin solubility [3, 8]: No effect

NCC(=O)NCC(=O)O [Gly-Gly] (H-Gly-Gly-OH)
Effect on rHuPH20 enzymatic activity (rHuPH20 [1]): No effect

NC(=O)CC[C@H](N)C(=O)O [Glutamine]
Effect on rHuPH20 enzymatic activity (rHuPH20 [1]): No effect | Effect on insulin solubility [3, 8]: No effect

[H]/N=C(\N/C(=N/[H])NCCCCCCNC(=N)NC(=N)Nc1ccc(Cl)cc1)Nc1ccc(Cl)cc1 [Chlorhexidine dihydrochloride]
rHuPH20 activity (rHuPH20 [1]; 24 hours, 25° C., in U/mL): 8130 | rHuPH20 activity (rHuPH20 [1]; 5 days, 25° C., in U/mL): 8750 | rHuPH20 activity (rHuPH20 [1]; 6 days, 35° C., in U/mL): 11890 | rHuPH20 activity (rHuPH20 [1]; [6]): 7,720 | % Main rHuPH20 peak by non-denaturing SEC ([2]; 4° C., 1 day): 98.76% | % Main rHuPH20 peak by non-denaturing SEC ([2]; 35° C., 1 day): 98.12%
